Laboratory results reported in US8586751B2, “Nicotinamide compounds useful as kinase modulators” (Bristol-Myers Squibb Company, priority 2009, dated 2013).

How the values were obtained:
human recombinant Btk = biological target: T1, human recombinant Btk (Homo sapiens, UniProt Q06187); experiment: Human Recombinant Btk Enzyme Assay (LLE_BTK); format: biochemical
T1 construct: purchased Invitrogen Corporation
Protocol: Human Recombinant Btk Enzyme Assay
To V-bottom 384-well plates were added test compounds, human recombinant Btk (1 nM, Invitrogen Corporation), fluoresceinated peptide (1.5 μM), ATP (20 μM), and assay buffer (20 mM HEPES pH 7.4, 10 mM MgCl2, 0.015% Brij35 and 4 mM DTT in 1.6% DMSO), with a final volume of 30 μL. After incubating at room temperature for 60 min, the reaction was terminated by adding 45 μl of 35 mM EDTA to each sample. The reaction mixture was analyzed on the Caliper LABCHIP® 3000 (Caliper, Hopkinton, Mass.) by electrophoretic separation of the fluorescent substrate and phosphorylated product. Inhibition data were calculated by comparison to no enzyme control reactions for 100% inhibition and no inhibitor controls for 0% inhibition. Dose response curves were generated to determine the concentration required inhibiting 50% of kinase activity (IC50). Compounds were dissolved at 10 mM in dimethylsulfoxide (DMSO) and evaluated at eleven concentrations.
Using this assay, the following IC50 values derived by non-linear regression analysis were determined and compared to those values of certain compounds in U.S. Publication No. 2007/078136 and U.S. Publication No. 2008/045536.

[1] = test system: Ramos B cells with beta-lactamase reporter gene under control of an NFAT response element; experiment: NFAT-bla RA1 Reporter Assay (Ramos-NFAT); format: cell-based, human; conditions: Homo sapiens, Ramos, read-out: IMM Ramos-NFAT (IC50)
Protocol: NFAT-bla RA1 Reporter Assay
Ramos B cells containing a stable integration of a beta-lactamase reporter gene under the control of an NFAT response element (NFAT-bla RA1, Invitrogen, K1434) at a density of 100×10^3 cells/well were incubated with test compounds at 37° C. for 30 min prior to stimulation with F(ab′)2 anti-human IgM (Jackson ImmunoResearch, 109-006-129) at 2.5 μg/ml for 4.5 hrs at 37° C. After stimulation, LiveBLAzer-FRET B/G substrate (CCF2/AM, or CCF4/AM, Invitrogen) was added to each well and incubated for 90 min at room temperature in the dark. Assay plates were read on an LJL Analyst, with raw emission values subtracted from a media-only blank containing substrate in assay media (no cells). The ratios of 460 nm/530 nm emission (405 nm excitation) were used to calculate the amount of stimulation.

T1 sequence (Q06187 whole entry): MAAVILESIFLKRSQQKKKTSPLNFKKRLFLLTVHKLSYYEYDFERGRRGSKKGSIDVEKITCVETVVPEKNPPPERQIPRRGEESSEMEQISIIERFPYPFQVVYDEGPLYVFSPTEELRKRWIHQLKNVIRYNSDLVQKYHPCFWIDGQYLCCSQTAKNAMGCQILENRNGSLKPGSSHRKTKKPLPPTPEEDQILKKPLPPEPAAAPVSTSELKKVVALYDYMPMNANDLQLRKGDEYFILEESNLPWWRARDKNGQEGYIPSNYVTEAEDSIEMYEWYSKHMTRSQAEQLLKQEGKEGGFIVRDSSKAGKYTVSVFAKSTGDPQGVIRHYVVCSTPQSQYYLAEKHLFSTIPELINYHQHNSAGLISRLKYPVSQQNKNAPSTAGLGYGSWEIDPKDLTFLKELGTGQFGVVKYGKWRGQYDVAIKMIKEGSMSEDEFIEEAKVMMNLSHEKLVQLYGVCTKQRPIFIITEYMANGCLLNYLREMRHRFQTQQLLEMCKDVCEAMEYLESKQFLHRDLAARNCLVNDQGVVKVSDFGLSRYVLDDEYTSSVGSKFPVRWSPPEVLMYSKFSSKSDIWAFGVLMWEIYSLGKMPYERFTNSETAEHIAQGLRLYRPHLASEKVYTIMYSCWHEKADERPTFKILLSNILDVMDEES

| SMILES | IC50 (human recombinant Btk) [nM] | IC50 [1] [nM] |
| --- | --- | --- |
| NC(=O)c1ccc(N2CCNCC2)nc1Nc1ccc(C(=O)N2CCOCC2)cc1 [Example 10, 2-(4-(Morpholine-4-carbonyl)phenylamino)-6-(piperazin-1-yl)nicotinamide] | 1800 |  |
| NC(=O)c1cc(F)c(N2CCCCC2)nc1Nc1ccc(F)cc1 [Example 15, 5-Fluoro-2-(4-fluorophenylamino)-6-(piperidin-1-yl)nicotinamide] | 870 |  |
| CC(C)(C)c1ccc(C(=O)Nc2cccc(-c3ccc(C(N)=O)c(Nc4ccc(C(=O)N5CCOCC5)cc4)n3)c2)cc1 [Example 37] | 1400 |  |
| CC(C)(C)OC(=O)N[C@@H]1CCN(c2ccc(C(N)=O)c(Nc3ccc(C(=O)N4CCOCC4)cc3)n2)C1 [Example 44] | 750 |  |
| NC(=O)c1ccc(N2CC[C@@H](N)C2)nc1Nc1ccc(C(=O)N2CCOCC2)cc1 [Example 45] | 2100 |  |
| NC(=O)c1ccc(N2CC[C@@H](NC(=O)c3ccc(C(F)(F)F)cc3)C2)nc1Nc1ccc(C(=O)N2CCOCC2)cc1 [Example 50] | 740 |  |
| CC(=O)c1ccccc1-c1ccc(C(N)=O)c(Nc2ccc(C(=O)N3CCOCC3)cc2)n1 [Example 132] | 1000 |  |
| NC(=O)c1ccc(-c2ccc(Cl)c(C(F)(F)F)c2)nc1Nc1ccc(C(=O)N2CCOCC2)cc1 [Example 143] | 1200 |  |
| Cc1ccc(NC(=O)c2ccc(C(C)(C)C)cc2)cc1-c1ccc(C(N)=O)c(Nc2ccc(C(=O)N3CCOCC3)cc2)n1 [Example 162] | 1400 |  |
| CC(C)(C)c1ccc(NC(=O)[C@@H]2CCN(c3ccc(C(N)=O)c(Nc4ccc(C(=O)N5CCOCC5)cc4)n3)C2)cc1 [Example 163] | 1500 |  |
| CC(C)(C)c1ccc(NC(=O)[C@@H]2CCCN(c3ccc(C(N)=O)c(Nc4ccc(C(=O)N5CCOCC5)cc4)n3)C2)cc1 [Example 164] | 2700 |  |
| NC(=O)c1ccc(N2CCC[C@@H](C(=O)O)C2)nc1Nc1ccc(C(=O)N2CCOCC2)cc1 [Example 165] | 2900 |  |
| CC(C)(C)OC(=O)N[C@@H]1CCCN(c2ccc(C(N)=O)c(Nc3ccccc3)n2)C1 [Example 295] | 1700 |  |
| NC(=O)c1ccc(NCc2ccccc2)nc1Nc1ccccc1 [Example 298] | 12000 |  |
| NC(=O)c1ccc(N2CCC[C@@H](N)C2)nc1Nc1ccccc1 [Example 299] | 1500 |  |
| Cc1ccc(NC(=O)N[C@@H]2CCCN(c3ccc(C(N)=O)c(Nc4ccccc4)n3)C2)cc1C [Example 300] | 1300 |  |
| N#Cc1ccc(Nc2nc(N3CCC[C@@H](N)C3)ccc2C(N)=O)cc1 [Example 302] | 880 |  |
| CC(C)(C)OC(=O)c1ccc(Nc2nc(N3CCCCC3)ccc2C(N)=O)cc1 [Example 314] | 1800 |  |

| SMILES | IC50 (human recombinant Btk) [nM] | IC50 [1] [nM] |
| --- | --- | --- |
| NC(=O)c1ccc(N2CCCCC2)nc1Nc1ccc(C(=O)Nc2ccccc2)cc1 [Example 323] | 780 |  |
| COc1cccc(Nc2nc(N3CCC[C@@H](NC(=O)Nc4nc(C)cs4)C3)ccc2C(N)=O)c1 [Example 331] | 780 |  |
| Cc1csc(NC(=O)N[C@@H]2CCCN(c3ccc(C(N)=O)c(Nc4ccc(N5CCOCC5)cc4)n3)C2)n1 [Example 337] | 760 |  |
| NC(=O)c1ccc(-c2cccc3c2CCNC3)nc1Nc1ccc(-c2cnco2)cc1 [Example 345] | 900 | 920 |
| NC(=O)c1ccc(-c2cccc3c2CCN(C(=O)c2ccccc2)C3)nc1Nc1ccc(-c2cnco2)cc1 [Example 346] | 2900 | 10000 |
| CC(=O)N1CCc2c(cccc2-c2ccc(C(N)=O)c(Nc3ccc(-c4cnco4)cc3)n2)C1 [Example 347] | 2000 | 10000 |
| CS(=O)(=O)Nc1cccc(Nc2nc(-c3ccc(Cl)cc3)ccc2C(N)=O)c1 [Example 375] | 1200 |  |
| CN(c1cccc(Nc2nc(-c3ccc(Cl)cc3)ccc2C(N)=O)c1)S(=O)(=O)Cc1ccccc1 [Example 376] | 6900 |  |
| CNc1cccc(Nc2nc(-c3ccc(Cl)cc3)ccc2C(N)=O)c1 [Example 380] | 3200 |  |
| CN(c1cccc(Nc2nc(-c3ccc(Cl)cc3)ccc2C(N)=O)c1)S(=O)(=O)c1ccccc1 [Example 381] | 1000 |  |
| CN1CCN(c2ccc(Nc3nc(N4CCC(O)CC4)c(F)cc3C(N)=O)cc2)CC1 [Example 407] | 30 | 120 |
| CNC(=O)c1ccc(N2CCC[C@@H](NC(=O)c3ccc(C(C)(C)C)cc3)C2)nc1Nc1ccc(C(=O)N2CCOCC2)cc1 [Example 442] | 2600 |  |
| COc1cc(Nc2nc(N3CCC[C@@H](NC(=O)c4ccccc4)C3)c(F)cc2C(N)=O)ccc1OCCNC1CC1 [Example 511] | 730 |  |
| CN(C(=O)Nc1ccccc1)c1cccc(Nc2nc(N3CCOCC3)c(F)cc2C(N)=O)c1 [Example 529] | 1000 |  |
| NC(=O)c1cc(F)c(N2CCOCC2)nc1Nc1cccc(CS(=O)(=O)N2CCCC2)c1 [Example 533] | 22000 |  |
| NC(=O)c1cc(F)c(N2CCOCC2)nc1Nc1cccc(N(S(=O)(=O)CCCCl)S(=O)(=O)CCCCl)c1 [Example 535] | 980 |  |
| CN(c1cccc(Nc2nc(N3CCOCC3)c(F)cc2C(N)=O)c1)S(=O)(=O)c1ccc(-c2ccccc2)cc1 [Example 537] | 1100 |  |
| CN(c1cccc(Nc2nc(N3CCOCC3)c(F)cc2C(N)=O)c1)S(=O)(=O)c1cccc2ccccc12 [Example 538] | 1200 |  |

The next molecules have a lower IC50 (human recombinant Btk) than those just listed; values first:

| IC50 (human recombinant Btk) [nM] | IC50 [1] [nM] | SMILES |
| --- | --- | --- |
| 7 | 40 | Cc1csc(NC(=O)N[C@@H]2CCCN(c3ccc(C(N)=O)c(Nc4ccc(N5CCN(C)CC5)cc4)n3)C2)n1 [Example 12, (R)-2-(4-(4-Methylpiperazin-1-yl)phenylamino)-6-(3-(3-(4-methylthiazol-2-yl)ureido)piperidin-1-yl)nicotinamide] |
| 1 | 160 | CS(=O)(=O)c1ccc(Nc2nc(N3CCCC4(CC(c5ccccc5)=NO4)C3)ccc2C(N)=O)cc1 (stereo not drawn) [Example 29, 2-((4-(Methylsulfonyl)phenyl)amino)-6-(3-phenyl-1-oxa-2,7-diazaspiro[4.5]dec-2-en-7-yl)nicotinamide] |
| 0.9 | 5700 | NC(=O)c1ccc(N2CCC[C@@H](NC(=O)c3cccc(-c4nc5ccccc5[nH]4)c3)C2)nc1Nc1ccc(C(=O)N2CCOCC2)cc1 [Example 263] |
| 10 | 120 | Cc1ccc(NC(=O)N[C@@H]2CCCN(c3ccc(C(N)=O)c(Nc4ccc(N5CCN(C)CC5)cc4)n3)C2)cc1C [Example 283] |
| 7 | 60 | CN1CCN(c2ccc(Nc3nc(N4CCC[C@@H](NC(=O)Nc5nccs5)C4)ccc3C(N)=O)cc2)CC1 [Example 284] |
| 4 | 100 | CCN1CCN(c2ccc(Nc3nc(N4CCC[C@@H](NC(=O)c5ccccc5)C4)ccc3C(N)=O)cc2)CC1 [Example 354] |
| 4 | 100 | CC(C)N1CCN(c2ccc(Nc3nc(N4CCC[C@@H](NC(=O)c5ccccc5)C4)ccc3C(N)=O)cc2)CC1 [Example 357] |
| 9 | 100 | CC(=O)N1CCN(c2ccc(Nc3nc(N4CCC[C@@H](NC(=O)Nc5ccc(C)c(C)c5)C4)ccc3C(N)=O)cc2)CC1 [Example 361] |
| 2 | 800 | NC(=O)c1cc(F)c(N2CCC[C@@H](NC(=O)Nc3nccs3)C2)nc1Nc1ccc(C(=O)N2CCOCC2)cc1 [Example 382] |
| 3 | 20 | CN1CCN(c2ccc(Nc3nc(N4CCC[C@@H](NC(=O)Nc5nccs5)C4)c(F)cc3C(N)=O)cc2)CC1 [Example 385] |
| 10 | 110 | CC(=O)N[C@@H]1CCCN(c2nc(Nc3ccc(N4CCN(C)CC4)cc3)c(C(N)=O)cc2F)C1 [Example 386] |
| 4 | 70 | CN1CCN(c2ccc(Nc3nc(N4CCC[C@@H](NC(=O)c5ccccc5)C4)c(F)cc3C(N)=O)cc2)CC1 [Example 388] |
| 20 | 120 | CN1CCN(c2ccc(Nc3nc(N4CCCCC4)c(F)cc3C(N)=O)cc2)CC1 [Example 393] |
| 1 | 180 | CN1CCN(c2ccc(Nc3nc(N4CCC[C@@H](NC(=O)c5ccc(F)cc5)C4)c(F)cc3C(N)=O)cc2)CC1 [Example 412] |
| 1 | 240 | CN1CCN(c2ccc(Nc3nc(N4CCC[C@@H](NC(=O)c5ccc(F)c(F)c5)C4)c(F)cc3C(N)=O)cc2)CC1 [Example 413] |
| 2 | 230 | CN1CCN(c2ccc(Nc3nc(N4CCC[C@@H](NC(=O)c5ccc(N(C)C)cc5)C4)c(F)cc3C(N)=O)cc2)CC1 [Example 414] |
| 2 | 380 | CN1CCN(c2ccc(Nc3nc(N4CCC[C@@H](N(C)C(=O)c5ccccc5)C4)c(F)cc3C(N)=O)cc2)CC1 [Example 418] |
| 0.6 |  | CN1CCC(C)(c2ccc(Nc3nc(N4CCC[C@@H](NC(=O)Nc5nnc(C(C)(C)C)s5)C4)c(F)cc3C(N)=O)cc2)CC1 [Example 494] |
